From patent US12215106B2, “Pharmaceutical compounds and therapeutic methods” (RUTGERS, THE STATE UNIVERSITY OF NEW JERSEY, priority 2018, dated 2025)
Where a name gives a salt, the structure may show the parent alone. Read-outs that look alike come from different tables or passages of the source.

What was measured:
STAT1 = assay: Western blotting of STAT1 protein levels in GBM spheres; type: cell-based, human; conditions: 72 hours
Protocol: GBM cells were treated with DMSO or different concentrations of the test compounds for 72 hours. Cells were lysed in Cell Lysis Buffer (Cell Signaling, #9803) supplemented with Protease Inhibitor Cocktail (Sigma, #P8340), sonicated briefly while on ice and spun down for 30 minutes at 4° C., after which the supernatant was collected. For each sample, 2 uL of lysate was mixed well into 198 uL de-ionized water. Next, 10 uL of this diluted sample was added to a well in a 96 well plate in quadruplets and mixed with Protein Assay Dye Reagent Concentrate (Bio-Rad, #500-0006) (which was diluted 1:5 with water). BSA standards of 25 ng, 50 ng, 100 ng, 200 ng and 250 ng were also used to the plate and mixed with the reagent. The plate was read in a plate reader at 600 nm and samples were calibrated to the standards to determine the concentration of protein. Using the NuPAGE system (Invitrogen), 25 ug of protein was mixed with NuPAGE LDS 4× Sample Buffer (#NP0007), NuPAGE 10× Reducing Agent (#NP0004) and water, mixed well and heated at 96° C. for 15 minutes to denature the protein. The samples were then loaded into 4-12% Bis-Tris gels (Novex (Invitrogen), #0323) with a protein ladder (Novex (Invitrogen) Sharp Pre-stained protein ladder, #57318) and run at 100-120V for about 2 hours with NuPAGE 20×SDS MES Running Buffer (#NP0002) diluted with water. Next, the gel was taken out and loaded into a NuPAGE transfer cassette with a polyvinylidene membrane with NuPAGE 20× Transfer Buffer (#NP0006-1) diluted with water and methanol. Proteins were transferred for 1 hour at 30V at room temperature. Blocking was performed using the Millipore SNAP i.d. Protein Detection system in 0.25% non-fat dry milk in 0.1% Tween in PBS (PBST). […] Protein signals were detected using ECL Western Blotting Substrate (Pierce, #32106) and filmed. […]

[1] = system: glioblastoma patient derived spheres; assay: MTT assay, cell viability of patient derived GBM spheres; type: cell-based; conditions: Homo sapiens
Description: To generate primary patient-derived GBM models for testing small molecule inhibitors, fresh primary tissues were received from patients undergoing surgical resection of WHO grade IV gliomas at Robert Wood Johnson University Hospital (RWJUH) under an approved IRB protocol. De-identified primary human GBM samples were delivered to the laboratory. Cells were obtained through mechanical dissociation of the tumor tissue using a blade and plated in DMEM/F12 medium (Gibco) in the presence of B-27 Supplement (Gibco, #17504-044), 20 ng/ml of human recombinant EGF (Gibco, #PHG0311L) and human recombinant FGF (Peprotech, #AF-100-18B). The following day, the culture was collected, incubated with Accutase (Gibco, #A11105-01) at 37° C. and passed through a 26G×⅜ needle (BD Precision Glide, #305110) to obtain a single cell suspension and re-plated in the same supplemented medium. Cells were cultured at low (5-6) passages in serum-free sphere 3D culture with mitogens that preserve the clonogenic stemness phenotype. […] different primary GBM cells (GBM #46, GBM #50, and GBM #76) were tested for cell viability after treatment with the inhibitors. Cell viability was measured using MTT assay. Briefly, one thousand cells per well were seeded in 96-well plates and exposed to drug in a total of 200 uL media. After 72 hours, 50 uL of stock concentration of 2.5 mg/mL 3-(4,5-dimethylthiazol-2-yl)-2,5-diphenyltetrazolium bromide (MTT) (Sigma, #M2128) dissolved in PBS was added to wells and incubated at 37° C. for 4 hours; read in a […] plate reader at 570 nm and compared to DMSO and untreated cells. The IC50 (defined as the concentration at which 50% of the cells were viable) was determined from the curve.
Novel compounds were synthesized and examined for their effectiveness on inhibiting the growth of patient derived GBM sphere cells that are more enriched in cancer stem-like cells (CSCs). An IC50 was established by measuring cell viability using a MTT assay when compared to vehicle control (DMSO) (FIG. 1-6).

[2] = 72 h, read-out: IC50, antitumor activity against glioblastoma patient derived spheres
[3] = read-out: Potency in patient derived GBM spheres

SMILES	STAT1 protein levels (STAT1)	IC50 [1, 2] [nM]	IC50 [1, 3] [nM]	IC50 ([1]; MTT, 72 hours, figure legends, read-out: IC50, antitumor activity against glioblastoma patient derived spheres) [nM]	IC50 ([1]; summary data, read-out: Potency in patient derived GBM spheres) [nM]
[2H]C([2H])([2H])Oc1ccc(Nc2nc(-c3c(C)nc4ccccn34)cs2)cc1 [Compound 15, N-(4-(methoxy-d3)phenyl)-4-(2-methylimidazo[1,2-c]pyridin-3-yl)thiazol-2-amine hydrochloride]	lowered STAT1	7	1000		
COc1c(F)cc(Nc2nc(-c3c(C)nc4ccccn34)cs2)cc1F [Compound 14, hydrochloride]	lowered STAT1			7	10
[2H]C1([2H])Oc2ccc(Nc3nc(-c4c(C)nc5ccccn45)cs3)cc2O1 [Compound 17, N-(benzo[d][1,3]dioxol-5-yl-2,2-d2)-4-(2-methylimidazo[1,2-c]pyridin-3-yl)thiazol-2-amine hydrochloride]	lowered STAT1	20	10		
Cc1nc2ccccn2c1-c1csc(Nc2ccc3c(c2)OC(F)(F)O3)n1 [Compound 16, N-(2,2-difluorobenzo[d][1,3]dioxol-5-yl)-4-(2-methylimidazo[1,2-a]pyridin-3-yl)thiazol-2-amine hydrochloride]		200	10		
